Reference: US11312711B2, “Morpholine derivative” (Hoffmann-La Roche Inc., priority 2016, dated 2022)
pEC50, pIC50, pKi: −log10 of the molar value. Where two headings read alike, the source gives them in different places.

Columns and labels:
hERG potassium channels = hERG potassium channels (Homo sapiens (Human), UniProt Q12809); assay: Whole-cell patch-clamp on hERG potassium channels in stably transfected CHO cells; format: cell-based
Protocol: The whole-cell patch-clamp technique was used to investigate the effects of the test items on hERG (human-ether-a-go-go related gene) potassium channels in stably transfected CHO cells near physiological temperature (36±1° C.). The effects of compounds on hERG K^+-current parameters were evaluated at 4 concentrations (0.3-3-30-300 μM) in at least 3 CHO cells stably expressing the hERG channel. For electrophysiological measurements cells were seeded onto 35 mm sterile culture dishes containing 2 ml culture medium without Hygromycin B. Cells were cultivated at a density that enabled single cells (without visible connections to neighbouring cells) to be measured. Cells were incubated at 37° C. in a humidified atmosphere with 5% CO2 (rel. humidity about 95%). The cells were continuously maintained in and passaged in sterile culture flasks containing nutrient mixture F-12 (DMEM/F-12 with L-Glutamine) supplemented with 10% foetal bovine serum and 10% penicillin/streptomycin solution. […] The 35 mm culture dishes upon which cells were seeded at a density allowing single cells to be recorded were placed on the dish holder of the microscope and continuously perfused (at approximately 1 ml/min) with the bath solution (sodium chloride 150 mM, potassium chloride 4 mM, calcium chloride 1.2 mM, magnesium chloride 1 mM, HEPES 10 mM, pH (NaOH) 7.4) at near physiological temperature (36±1° C.). After formation of a Gigaohm seal between the patch electrodes and individual hERG stably transfected CHO cells (pipette resistance range: 2.0 MΩ-7.0 MΩ; seal resistance range: >1 GΩ) the cell membrane across the pipette tip was ruptured to assure electrical access to the cell interior (whole-cell patch-configuration). In case the quality of the seal was poor, the process of seal formation was repeated with a different cell and a new pipette. […] This voltage protocol was run at least 10 times at intervals of 10 s. If current density was judged to be too low for measurement, another cell was recorded. […] During wash-in of the test item the voltage protocol indicated above was run continuously again at 10 s intervals until the steady-state level of block was reached. The four test item concentrations of the compound were applied sequentially to 3 cells in a cumulative manner. […] Based on the IC50 value the IC20 was estimated. Each concentration of the test item was analyzed in three experiments (n=3).

human TAAR1 = human TAAR1 (Homo sapiens (Human), UniProt Q96RJ0); assay: cAMP functional assay in HEK293 cells expressing human TAAR1; format: cell-based; details: for pEC50: cAMP, HEK293 cells expressing human TAAR1, read-out: hTAAR1 EC50
Sequence of human TAAR1 (Q96RJ0 whole entry): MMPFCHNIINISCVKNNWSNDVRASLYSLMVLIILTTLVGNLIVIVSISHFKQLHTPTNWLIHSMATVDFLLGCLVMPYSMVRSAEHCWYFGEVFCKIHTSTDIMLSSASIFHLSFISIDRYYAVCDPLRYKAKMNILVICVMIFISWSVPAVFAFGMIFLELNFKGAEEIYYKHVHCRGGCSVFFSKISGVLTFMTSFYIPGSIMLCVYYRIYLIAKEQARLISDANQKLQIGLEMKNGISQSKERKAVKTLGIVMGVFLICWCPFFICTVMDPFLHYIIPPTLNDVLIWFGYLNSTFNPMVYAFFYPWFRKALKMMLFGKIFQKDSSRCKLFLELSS
Protocol: The Expand High Fidelity PCR System (Roche Diagnostics) was used with 1.5 mM Mg^2+ and purified PCR products were cloned into pCR2.1-TOPO cloning vector (Invitrogen) following the instructions of the manufacturer. PCR products were subcloned into the pIRESneo2 vector (BD Clontech, Palo Alto, Calif.), and expression vectors were sequence verified before introduction in cell lines.
HEK293 cells (ATCC #CRL-1573) were cultured essentially as described by Lindemann et al. (2005). For the generation of stably transfected cell lines HEK293 cells were transfected with the pIRESneo2 expression plasmids containing the TAAR coding sequences (described above) with Lipofectamine 2000 (Invitrogen) according to the instructions of the manufacturer, and 24 hrs post transfection the culture medium was supplemented with 1 mg/ml G418 (Sigma, Buchs, Switzerland). After a culture period of about 10 d clones were isolated, expanded and tested for responsiveness to trace amines (all compounds purchased from Sigma) with the cAMP Biotrak Enzyme immunoassay (EIA) System (Amersham) following the non-acetylation EIA procedure provided by the manufacturer.
cAMP measurements were performed as described previously (Revel et al., Proc. Natl. Acad. Sci. USA 2011, 108, 8485-8490). In brief, cells that expressed human TAAR1 were plated on 96-well plates (BIOCOAT 6640; Becton Dickinson, Allschwil, Switzerland) and incubated for 20 h at 37° C. Prior to stimulation of the cells with a broad concentration range of agonists for 30 min at 37° C., the cells were washed with PBS and preincubated with PBS that contained 1 mM 3-isobutyl-1-methylxanthine for 10 min at 37° C. and 5% CO2. Stimulation with 0.2% DMSO was set as the basal level, and the effect of 30 μM β-PEA was set as the maximal response. […] Finally, the plates were read with a luminometer (1420 Multilabel counter; PerkinElmer, Schwerzenbach, Switzerland), and the amount of cAMP was calculated. […]

human DAT = human DAT (Homo sapiens (Human), UniProt Q01959); assay: Binding to dopamine transporter (DAT) in vitro, [3H]-WIN35,428 SPA
Sequence of human DAT (Q01959 whole entry): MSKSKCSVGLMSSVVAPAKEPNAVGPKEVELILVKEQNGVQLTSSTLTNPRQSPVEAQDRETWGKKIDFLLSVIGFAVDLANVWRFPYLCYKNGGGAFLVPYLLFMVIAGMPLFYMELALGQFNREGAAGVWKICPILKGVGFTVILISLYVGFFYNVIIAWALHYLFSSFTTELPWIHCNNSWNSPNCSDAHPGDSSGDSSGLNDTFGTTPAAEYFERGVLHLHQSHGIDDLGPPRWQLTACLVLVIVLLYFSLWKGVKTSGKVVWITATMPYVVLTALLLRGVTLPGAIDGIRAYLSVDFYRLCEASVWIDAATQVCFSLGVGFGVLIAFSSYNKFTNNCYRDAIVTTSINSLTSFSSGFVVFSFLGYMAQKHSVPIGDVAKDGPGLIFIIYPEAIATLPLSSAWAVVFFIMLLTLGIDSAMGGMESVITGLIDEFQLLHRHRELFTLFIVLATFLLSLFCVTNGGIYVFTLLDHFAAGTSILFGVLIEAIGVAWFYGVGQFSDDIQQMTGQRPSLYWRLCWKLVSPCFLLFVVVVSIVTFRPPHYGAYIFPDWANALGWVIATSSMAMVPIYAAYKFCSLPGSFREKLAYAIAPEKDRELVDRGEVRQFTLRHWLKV
Protocol: Binding to dopamine transporter (DAT) in vitro. Human embryonic kidney (HEK) 293 cells (Invitrogen, Zug, Switzerland) stably transfected with human DAT were cultured. The cells were collected and washed three times with phosphate-buffered saline (PBS). The pellets were frozen at −80° C. The pellets were then resuspended in 400 ml of 20 mM HEPES-NaOH, pH 7.4, that contained 10 mM EDTA at 4° C. […] Aliquots of the membrane stocks were frozen at −80° C. All assays were performed at least three times. The test compounds were diluted in […] of binding buffer (252 mM NaCl, 5.4 mM KCl, 20 mM Na2HPO4, 3.52 mM KH2PO4, pH 7.4) and 10 point dilution curves were made and transferred to 96-well white polystyrene assay plates (Sigma-Aldrich, Buchs, Switzerland). […] Twenty microliters of binding buffer alone in the assay plate defined the total binding, whereas binding in the presence of 10 μM indatraline defined nonspecific binding. Frozen DAT membrane stocks were thawed and resuspended to a concentration of approximately 0.04 mg protein/ml binding buffer (1:1 diluted in H2O) using a polytron tissue homogenizer. The membrane homogenates (40 μg/ml) were then lightly mixed for 5-30 min with polyvinyl toluene […] wheat germ agglutinin-coated scintillation proximity assay (WGASPA; Amersham Biosciences) beads at 7.7 mg beads/ml homogenate. One hundred thirty microliters of the membrane/bead mixture were added to each well of the assay plate that contained radioligand and test compounds (final volume in each well, 200 μl) to start the assay, which was incubated for approximately 2 h at room temperature with agitation. The assay plates were then counted in the PVT SPA counting mode of a Packard Topcount. […] Non-linear regression was used to fit the data to sigmoid curves and determine IC50 values for binding and uptake. Ki values for binding and uptake were calculated using the following Cheng-Prusoff equation: Ki=IC50/(1+[S]/Km).

mutant DAT = mutant DAT (Mus musculus (Mouse), UniProt Q61327, A109V/F105C/L104V); details: cocaine-insensitive DAT; cited from earlier work

Sequence of hERG potassium channels (Q12809 whole entry): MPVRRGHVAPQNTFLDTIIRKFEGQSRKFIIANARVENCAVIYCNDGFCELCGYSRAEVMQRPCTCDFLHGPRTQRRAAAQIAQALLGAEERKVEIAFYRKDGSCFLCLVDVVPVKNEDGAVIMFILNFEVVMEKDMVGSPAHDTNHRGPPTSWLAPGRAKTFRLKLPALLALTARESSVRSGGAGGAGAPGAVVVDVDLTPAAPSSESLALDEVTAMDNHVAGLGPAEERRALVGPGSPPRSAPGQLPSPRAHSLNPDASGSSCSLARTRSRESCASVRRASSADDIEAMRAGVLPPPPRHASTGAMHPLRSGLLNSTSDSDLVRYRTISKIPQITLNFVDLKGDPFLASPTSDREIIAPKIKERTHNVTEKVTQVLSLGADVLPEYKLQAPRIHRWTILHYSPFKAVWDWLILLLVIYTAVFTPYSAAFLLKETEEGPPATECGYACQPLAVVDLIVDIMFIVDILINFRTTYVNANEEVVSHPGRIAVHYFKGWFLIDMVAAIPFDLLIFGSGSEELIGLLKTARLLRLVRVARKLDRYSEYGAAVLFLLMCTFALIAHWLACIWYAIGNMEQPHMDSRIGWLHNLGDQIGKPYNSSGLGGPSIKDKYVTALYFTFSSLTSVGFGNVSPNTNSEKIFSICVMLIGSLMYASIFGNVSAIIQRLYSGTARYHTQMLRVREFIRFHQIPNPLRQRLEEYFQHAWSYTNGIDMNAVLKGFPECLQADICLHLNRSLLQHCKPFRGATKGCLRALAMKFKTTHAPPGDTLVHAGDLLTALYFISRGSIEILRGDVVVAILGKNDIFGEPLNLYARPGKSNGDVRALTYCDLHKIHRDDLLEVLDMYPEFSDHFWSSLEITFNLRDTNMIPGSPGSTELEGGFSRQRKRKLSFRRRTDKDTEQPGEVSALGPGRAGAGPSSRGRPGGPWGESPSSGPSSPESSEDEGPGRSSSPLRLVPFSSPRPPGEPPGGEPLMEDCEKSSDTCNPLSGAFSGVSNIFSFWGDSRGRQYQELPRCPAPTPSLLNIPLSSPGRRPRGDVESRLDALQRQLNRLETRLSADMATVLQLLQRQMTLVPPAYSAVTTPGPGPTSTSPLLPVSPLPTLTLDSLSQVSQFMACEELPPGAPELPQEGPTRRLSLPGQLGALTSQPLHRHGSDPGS

5-Chloro-N-[4-[(2S)-morpholin-2-yl]phenyl]pyridine-2-carboxamide [Example 12]
Ratio hERG IC20/hTAAR1 EC50 (hERG potassium channels): 15
IC20 (hERG potassium channels; estimated based on the IC50 value): 3210 nM
hERG selectivity ratio versus hTAAR1 EC50 (hERG potassium channels; hERG IC20 versus hTAAR1 EC50): 15 fold
pIC50 (hERG potassium channels; patch-clamp, CHO cells, 36±1° C.): 4.85
hTAAR1 efficacy (human TAAR1; % agonist activity, β-phenylethylamine = 100% agonism): 40%
pEC50 (human TAAR1; listed as Comparative example 12): 6.67
pEC50 (human TAAR1): 6.67
Ratio DAT Ki/hTAAR1 EC50 (human DAT): 8
DAT selectivity ratio versus hTAAR1 EC50 (human DAT; DAT Ki versus hTAAR1 EC50): 8 fold
pKi (human DAT; [3H]-WIN35,428 radioligand): 5.75

COC(=O)[C@H]1[C@@H](OC(=O)c2ccccc2)C[C@@H]2CC[C@H]1N2C [cocaine]
lower affinity of mutant DAT for cocaine relative to wild-type DAT (mutant DAT): 89 fold
